Literature values, collected in patent US20050009848A1, “Use of antivirals against inflammatory bowel diseases” (ICN Pharmaceuticals Switzerland Ltd., priority 2003, published 2005).

Conditions: one patient with Crohn's disease, HSV-I and HSV-II DNA detected in intestinal mucosa; acyclovir co-used with classical mesalazin-corticosteroid therapy

In the case of `Nc1nc2c(ncn2COCCO)c(=O)[nH]1` [acyclovir], the “morphological and clinical findings” value is given as “changed the morphological and clinical findings decisively”.
